Source: US20260108554A1, “METHODS FOR REPROGRAMMING AND GENE EDITING CELLS” (Factor Bioscience Inc., priority 2022, published 2026)
Where “and” joins values, the source holds several entries; their conditions need not be identical. Identical values can stand only once.

Columns and labels:
Type in all cases: cell-based, human
AAVS1 [1] = assay: 300 base insertion in fibroblasts (SfoI cut band)
Protocol: In the gel, Lane 1: 100 base ladder; Lane 2: Ultraslice and SfoI 300 base insertion dsDNA repair template (Untreated); and Lane 3: Ultraslice and SfoI 300 base insertion dsDNA repair template (NU7441 9 uM 72 h treated).

fibroblasts = assay: cell cycle S/G2 population after Resveratrol treatment
AAVS1 safe-harbor locus = assay: SfoI assay (RFLP) of single-base editing in fibroblasts; details: for increase in single-base editing / base change efficiency compared to untreated: application after transfection (25 μM 48 h post electroporation)
Protocol: The following general protocol was used for an Sfol assay to quantify insertion of repair template.
(§1) • 1. Fibroblasts were cultured using DMEM+10% FBS media in 37° Celsius with 5% O2 and 5% CO2 • 2. iPSC was cultured using mTeSR+Y27632 in 37° Celsius with 5% O2 and 5% CO2
(§2) • 3. After detaching cells with TrypleE and DTI, standard electroporation protocol was performed • 4. 0.8 ug˜1 ug of AAVS1 Ultraslice RNA and 600 ng of SfoI ssDNA repair template was delivered by electroporation. Ultraslice is a temperature sensitive gene-editing protein. The SfoI base change ssDNA repair template was a single stranded DNA piece with homology arms that is used as template for targeted DNA repair • 5. Fibroblasts were electroporated with 700 V, 20 ms, 1 pulse • 6. iPSCs were electroporated with 1100 V, 20 ms, 2 pulse)
• 7. Cells were detached 48 h˜72 h post electroporation and centrifuged to obtain cell pellets • 8. Perform genomic DNA extraction was performed using ZYMO Research Quick DNA Miniprep Kit (Catalog #: D3024)
• 9. AAVS1 surveyor PCR was performed using KAPA Hifi Hotstart PCR kit
• 10. 250 ng˜400 ng of AAVS1 PCR amplicon was obtained • 11. Amplicon was mixed with 2 μl of 10× Tango Buffer and 1 μl of EheI enzyme • 12. The mixture was incubated for 1 h in 37° C., followed by 20 mins at 65° C.
• 13. After diluting SfoI assay product with 40 ul of H2O, 20 ul of product was loaded to 2% Egel • 14. After running 2% Egel for 10 minutes, the gel was visualized and SfoI band intensity was quantified using Chemidoc and ImageJ software
Following treatment with resveratrol, fibroblasts was co-transfected with mRNA encoding a chromatin context-sensitive gene-editing protein targeting the AAVS1 safe-harbor locus and a single-stranded DNA repair template designed to introduce a SfoI restriction-enzyme site through a G-to-C mutation. Single-base editing efficiency was determined by restriction fragment length polymorphism (RFLP) analysis. […] In the gel, Lane 1: 100 base ladder; Lane 2: Ultraslice and SfoI base change ssDNA repair template (Resveratrol 25 μM 48 h pretreatment); Lane 3: Ultraslice and SfoI base change ssDNA repair template (Untreated); and Lane 4: Ultraslice and SfoI base change ssDNA repair template (Resveratrol 25 μM treatment 48 post electroporation).

AAVS1 [2] = assay: 1 kb insertion in iPSCs (AAVS1 sPCR amplicon gel); details: iPSC
Protocol: as §1, §2
In this experiment, the gel image is AAVS1 sPCR amplicon and not Sfol assay product. In the gel, Lane 1: 1000 base ladder; Lane 2: Ultraslice (Clean cap) and SfoI 1 kb insertion ssDNA repair template with 90b homology arm (Reverse transcription); and Lane 3: Ultraslice (Clean cap) and SfoI 1 kb insertion ssDNA repair template with 90b homology arm (Reverse transcription)—Resveratrol 25 uM 24 h incubation.
In this experiment, the gel image is AAVS1 sPCR amplicon and not Sfol assay product. […]

iMSCs = assay: electroporation of GFP repair template at AAVS1 with or without TTAGGG motif; details: gene-editing at AAVS1 with GFP repair template
Protocol: FIG. 54 is a graphical illustration of the mechanism of action that the inclusion of the TTAGGG motif has on cells during electroporation. Cells were electroporated with and without the addition of a gene editing protein, UltraSlice. All electroporation's were performed using the Invitrogen NEON.
In this example, the TTAGGG motif was incorporated onto the 5′ end of a double stranded repair template or co-electroporated as a short oligo fragment in primary fibroblasts, iMSC, or iPSC.
The sequence of the TTAGGG motif used in this example was: […] (SEQ ID NO: 15). This motif was incorporated at the 5′ and 3′ end of dsODN via PCR amplification using the primer pair A151-AAVS1, Forward primer: […] (SEQ ID NO: 86) and A151-AAVS1, Reverse primer: […] (SEQ ID NO: 87). Control primers without the motif had the following sequences: AAVS1, Forward primer: […] (SEQ ID NO: 88) and AAVS1, Reverse primer: […] (SEQ ID NO: 89). The full sequence of the repair template that human primary fibroblasts, iMSCs and iPSCs was: AAVS1-h90-pJeT-GFP-SpA-h90. This repair template included a dsODN encoding a GFP reporter and containing an SfoI restriction site targeting the AAVS1 site with 90 base pairs of homology. The A151 sequence was added to the end of a double stranded repair template using PCR amplification. Repair templates were then purified using the Qiagen QIAquick PCR Purification kit prior to electroporation. […]

Compound: O=c1cc(N2CCOCC2)oc2c(-c3cccc4c3sc3ccccc34)cccc12 [NU7441]
- gene-editing efficiency (gel) (AAVS1 [1]): increased gene-editing efficiency
- increase in 300b insertion SfoI cut band intensity compared to untreated (AAVS1 [1]; fibroblasts, 9 uM 72 h incubation): 7 fold

Compound: Oc1ccc(C=Cc2cc(O)cc(O)c2)cc1 [Resveratrol]
- increase in S/G2 population (fibroblasts; 25 uM for 48 h followed by 8 h incubation in DMEM/10% FBS): approximately 40%
- increase of the S and G2-phase population (fibroblasts; treatment prior to transfection, compared to untreated cells): 2.3 fold
- increase in single-base editing / base change efficiency compared to untreated (AAVS1 safe-harbor locus): approximately 2.3 fold
- increase in single-base editing / base change efficiency compared to untreated (AAVS1 safe-harbor locus; listed as resveratrol): > 2 fold
- increase in HDR / base change efficiency compared to untreated (AAVS1 safe-harbor locus; fibroblasts, 25 μM 48 h pretreatment prior to transfection): 2.2 fold and 2 fold
- gene-editing efficiency (gel) (AAVS1 safe-harbor locus; pretreated fibroblasts): increased gene-editing efficiency
- 1 kb insertion rate (AAVS1 [2]; 25 uM for 24 h post electroporation, ssDNA repair template (Reverse transcription)): 8.7%
- increase of 1 kb insertion (AAVS1 [2]; treatment after electroporation): 1.6 fold

Compound: TTAGGGTTAGGGTTAGGGTTAGGG [A151 ODN]
- higher viability than when the motif was not present (iMSCs): approximately 50%
- more GFP-positive cells than when the motif was not present (iMSCs): approximately 50%
